Reference: patent US9481709B2, “Boropeptide inhibitors of enteropeptidase and their uses in treatment of obesity, overweight and/or diseases associated with an abnormal fat metabolism” (OBE THERAPY BIOTECHNOLOGY, priority 2007, dated 2016)

Tests used:
Kallikrein = Kallikrein (Homo sapiens, UniProt P03952); experiment: Kallikrein
From the text: (§1) Table printed on a drawing sheet, Fig. 5
Head of the field: Kallikrein
(§2) The patent's description of the figure: FIG. 5 is a Table showing the IC 50 (in nM) of enteropeptidase, various serine proteases and other enzyme families, in the presence of compounds OBE 1999, OBE 2000, OBE 2001 or OBE 2002.
(§3) First copying reader's note: Each column is one compound; each row gives its IC50 against the named enzyme.
Where the first naming reader finds the target: head: Kallikrein

[1] = Effect on weight in a model of obesity induced by a hyperlipidic diet; assay type: in vivo, mice; details: 40 mg/kg/day oral; for gain or loss of weight according to the initial weight, mean: high fat diet, Swiss male mice
Method: 1. Effect of OBE2001 on Weight
The aim of this first in vivo experiment is to determine the anti-obesity effect of OBE2001 in a model of obesity induced by a hyperlipidic diet in mice.
OBE2001 (Acetyl-Ala-Phe-BoroArg) was provided under salt form (molecular weight of 568.3 g/mol). Swiss male mice, 4 weeks of age, were divided into 2 groups of 10 animals each, receiving the following:
Administration of OBE2001 was carried out as a solution in water. Both OBE2001 or vehicle (water used a negative control) were administrated to the animals daily by the oral route in an administration of 5 ml/kg body weight.
Concerning the feeding of the animals, before the experiments (acclimation period), normal diet (reference No. 824050 SDSIDIETEX food) was available ad libitum during the acclimation period. 7 days before the beginning of the study, a hypercaloric High Fat diet ([…], 4.73 Kcal/g; reference 824053 SDSIDIETEX) was given to groups 1 and 2.
Animals were weighed daily from at D-8 (8 days before the beginning of the experiment) then from D-5 to the end of the study. From D1 (first day of the experiment), food was given ad libitum.

[2] = Effect on absorption of 14C-proteins after oral administration; assay type: in vivo; details: for Cmax of 14C-protein radioactivity in plasma: control 0.9%±0.27; for AUC mean of 14C-protein radioactivity in plasma: control 2.214±0.1875; for plateau concentration of 14C-protein radioactivity in plasma: 1 h to 4 h post-administration, control 0.5%
Method: 3. Effect of OBE2001 on Protein Absorption
This third in vivo experiment was designed to obtain information on the absorption of ^14C-proteins in absence or in presence of OBE2001 at two different doses (5 mg/Kg or 50 mg/Kg) after an oral administration to male Swiss mice.
15 male Swiss (CD-1) mice, 5 weeks-old and having a mean body weight of 0.021±0.002 kg were divided in 3 groups: • Control Group (G1; solvant) containing 5 mice, received water at 5 mL/Kg at t-5 min and ^14C-proteins at 10 mL/Kg at T=0 min; • Group 2 (G2) containing 5 mice (OBE 5 mg/Kg), received OBE2001 at 5 mg/Kg at t-5 min and ^14C-proteins at 10 mL/Kg at T=0 min; • Group 3 (G3) containing […] (OBE 50 mg/Kg), received OBE2001 at 50 mg/Kg at t-5 min and ^14C-proteins at 10 mL/Kg at T=0 min.
A preparation containing 5 ml of Clinoleic 20 (Baxter Ref DDB9500) with 1 g of glucose (Sigma; ref:G8270) and 1 g of casein (Sigma; ref: C3400) was prepared. Water was added until the solution reached 10 ml. After concentration of the radioactive solution containing the ^14C proteins (GE Healthcare; ref: CFA626) (×10), 200 μl of this radioactive solution was added to 2.8 ml of the preparation, in order to reach a concentration of ca 3.3 μCi/ml. The animals were starved before administration of this radioactive preparation. The radioactive preparation was orally administered by intragastric gavage with a single dosing (ca 33.3 μCi/kg) in a volume of ca 10 ml/kg of body weight.
OBE2001 was provided in a mixture of two salts (HCl and TFA) with a 90% purity. OBE2001 was orally administered by intragastric gavage with a single dosing of 5 mg/Kg for G2 and 50 mg/Kg for G3 in a volume of ca 5 mL/kg body-weight.
Plasma aliquots were removed and placed into 6 ml pre-weighed plastic vials, at t+15, t+30, t+60, t+120 and t+240 min. About 4 ml Pico-fluor 40 was added and after shaking, the total radioactivity contained within the different samples was determined by liquid scintillation using a Packard 1900 CA spectrometer equipped with an external standard system (spectral analysis). A quenching curve for calibration purposes was set up using a ^14C quenched set supplied by Packard Instruments.
Liquid scintillation (LS) Counting was carried out with 2 sigma=2%, and for a maximum duration of 5 minutes (according to the method created in the 1900CA® software). Dpm (disintegration per minute) values of less than twice the background level of blank biological medium were reported as BLQ (Below the Limit of Quantitation).

Plasmin = Plasmin (Homo sapiens, UniProt P00747); experiment: Plasmin
Plasmin, sequence (P00747 97-810): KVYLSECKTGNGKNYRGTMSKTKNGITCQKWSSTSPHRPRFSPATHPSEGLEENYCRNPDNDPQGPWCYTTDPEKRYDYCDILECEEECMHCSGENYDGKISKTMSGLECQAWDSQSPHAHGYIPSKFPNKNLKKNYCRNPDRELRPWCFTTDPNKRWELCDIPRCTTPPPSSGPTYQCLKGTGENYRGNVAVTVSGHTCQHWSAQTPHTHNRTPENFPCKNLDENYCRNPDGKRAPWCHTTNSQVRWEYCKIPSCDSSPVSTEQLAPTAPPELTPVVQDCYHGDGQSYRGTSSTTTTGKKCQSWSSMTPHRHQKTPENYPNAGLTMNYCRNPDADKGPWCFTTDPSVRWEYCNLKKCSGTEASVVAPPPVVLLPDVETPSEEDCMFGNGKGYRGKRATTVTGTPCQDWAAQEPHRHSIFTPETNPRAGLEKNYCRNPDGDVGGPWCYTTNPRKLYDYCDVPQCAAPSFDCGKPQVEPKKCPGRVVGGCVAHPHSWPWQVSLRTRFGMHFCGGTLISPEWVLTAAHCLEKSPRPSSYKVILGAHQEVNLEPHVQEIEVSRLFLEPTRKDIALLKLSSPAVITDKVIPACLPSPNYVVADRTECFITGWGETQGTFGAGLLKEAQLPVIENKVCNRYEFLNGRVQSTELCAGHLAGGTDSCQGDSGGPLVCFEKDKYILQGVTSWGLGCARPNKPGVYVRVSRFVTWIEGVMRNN
From the text: as §1
Head of the field: Plasmin
as §2, §3
Where the first naming reader finds the target: head: Plasmin

Kallikrein, sequence (P03952 20-638): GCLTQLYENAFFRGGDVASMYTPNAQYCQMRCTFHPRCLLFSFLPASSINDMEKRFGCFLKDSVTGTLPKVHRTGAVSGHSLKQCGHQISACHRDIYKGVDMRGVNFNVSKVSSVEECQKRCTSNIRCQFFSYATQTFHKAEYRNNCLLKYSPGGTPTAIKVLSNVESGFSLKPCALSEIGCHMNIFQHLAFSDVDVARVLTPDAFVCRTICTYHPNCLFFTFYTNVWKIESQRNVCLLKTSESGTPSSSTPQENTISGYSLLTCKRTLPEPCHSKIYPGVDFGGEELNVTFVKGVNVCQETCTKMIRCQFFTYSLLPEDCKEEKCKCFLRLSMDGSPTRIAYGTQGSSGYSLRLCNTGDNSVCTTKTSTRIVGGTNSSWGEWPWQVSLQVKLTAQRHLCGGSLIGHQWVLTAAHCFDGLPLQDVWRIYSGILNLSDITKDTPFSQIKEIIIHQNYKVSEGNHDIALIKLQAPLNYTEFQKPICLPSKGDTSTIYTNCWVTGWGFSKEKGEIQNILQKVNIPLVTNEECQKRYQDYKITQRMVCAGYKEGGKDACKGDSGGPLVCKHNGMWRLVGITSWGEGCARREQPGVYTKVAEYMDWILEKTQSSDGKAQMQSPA

Which IC50 (Kallikrein) does the source give for `CC(=O)N[C@@H](C)C(=O)N[C@@H](Cc1ccccc1)C(=O)N[C@@H](CCCNC(=N)N)B1OC2C[C@@H]3C[C@@H](C3(C)C)[C@]2(C)O1` (stereo partly drawn) [OBE2001] here?
Its IC50 is 0.0069 µM.

And the “weight of treated mice versus control group” value ([1]; significant from day 4, highly significant from day 8)?
The value was “significantly lower”.

And the “gain or loss of weight according to the initial weight, mean” value (“gain or loss of weight according” for short) ([1]; D1)?
The value was -2.7 g.

What about the “gain or loss of weight according” value ([1]; D2) of the same molecule?
The value was -1.2 g.

What about the “gain or loss of weight according” value ([1]; D3) of the same molecule?
Its value is -0.8 g.

And the “gain or loss of weight according” value ([1]; D4)?
Its value is 0.2 g.

And the “gain or loss of weight according” value ([1]; D5)?
Its value is 0.7 g.

What about the “gain or loss of weight according” value ([1]; D6) of the same molecule?
Its value is 1.0 g.

What about the “gain or loss of weight according” value ([1]; D7) of the same molecule?
The value was 0.9 g.

What about the “gain or loss of weight according” value ([1]; D8) of the same molecule?
Its value is 1.3 g.

And the “gain or loss of weight according” value ([1]; D9)?
The value was 1.0 g.

And the “gain or loss of weight according” value ([1]; D10)?
Its value is 1.1 g.

And the “gain or loss of weight according” value ([1]; D11)?
Its value is 0.5 g.

What about the “gain or loss of weight according” value ([1]; D12) of the same molecule?
Its value is 1.8 g.

What about the “gain or loss of weight according” value ([1]; D13) of the same molecule?
The value was 2.0 g.

What about the “Cmax of 14C-protein radioactivity in plasma” value ([2]; 5 mg/kg oral at t-5 min) of the same molecule?
Its value is 0.58%±0.54 % of administered dose/g.

And the “AUC mean of 14C-protein radioactivity in plasma” value ([2]; 5 mg/kg)?
The value was 1.841±0.6402 % dose.h.g-1.

And the “Cmax of 14C-protein radioactivity in plasma” value ([2]; 50 mg/kg oral at t-5 min)?
Its value is 0.54%±0.24 % of administered dose/g.

And the “AUC mean of 14C-protein radioactivity in plasma” value ([2]; 50 mg/kg)?
The value was 1.718±0.4366 % dose.h.g-1.

What about the “plateau concentration of 14C-protein radioactivity in plasma” value ([2]; 5 mg/kg) of the same molecule?
The value was 0.4 % administered dose/g.

And the “plateau concentration of 14C-protein radioactivity in plasma” value ([2]; 50 mg/kg)?
The value was 0.4 % administered dose/g.

And the “protein absorption compared to control mice” value ([2]; first 30 minutes after protein administration, maintained at least 4 hours)?
Its value is “greatly decreased”.

What about the morbidity or mortality ([2]; single oral dose 5 or 50 mg/kg, male Swiss mice) of the same molecule?
Its morbidity or mortality is “no sign of morbidity or mortality occurred”.

What about the IC50 (Plasmin) of the same molecule?
Its IC50 is 0.0217 µM.
